Target: T1, DYRK4 (Homo sapiens, UniProt Q9NR20)
T1 construct: purchased Thermo Fisher Scientific (Life Technologies) SelectScreen
Assay: SelectScreen Z'LYTE
Format: biochemical
Summary of the method: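 Percent values come from Thermo SelectScreen profiling of NU5455, combining activity and binding assays. CSF1R was run in Z'LYTE format at Km app ATP, and CAMK1 in Adapta format with ATP listed at 10.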

T1 sequence (Q9NR20 whole entry): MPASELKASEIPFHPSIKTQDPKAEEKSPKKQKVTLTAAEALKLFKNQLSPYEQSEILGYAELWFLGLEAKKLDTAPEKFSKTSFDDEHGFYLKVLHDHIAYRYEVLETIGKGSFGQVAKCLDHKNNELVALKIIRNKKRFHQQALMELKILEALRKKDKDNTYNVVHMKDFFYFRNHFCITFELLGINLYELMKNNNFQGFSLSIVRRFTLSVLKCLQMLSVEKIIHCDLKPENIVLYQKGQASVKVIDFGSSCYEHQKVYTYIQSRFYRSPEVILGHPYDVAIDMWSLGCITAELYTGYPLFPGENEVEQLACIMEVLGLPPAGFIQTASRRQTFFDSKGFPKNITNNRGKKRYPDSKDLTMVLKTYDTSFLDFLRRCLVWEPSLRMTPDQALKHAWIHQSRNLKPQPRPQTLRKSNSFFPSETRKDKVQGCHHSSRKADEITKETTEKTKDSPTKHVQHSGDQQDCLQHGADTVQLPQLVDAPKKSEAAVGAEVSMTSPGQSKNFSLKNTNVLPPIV

CN(C(=O)CN1CCOCC1)c1ccc2sc3c(-c4cccc5c(=O)cc(N6CC7CCC(C6)O7)oc45)cccc3c2c1 [NU5455] was tested, and the inhibition at 1 µM was 0.3%.
